Reference: patent US11234971B2, “Methods of treating cancer comprising administration of a glucocorticoid receptor modulator and a cancer chemotherapy agent” (Corcept Therapeutics Incorporated, priority 2018, dated 2022)

Key:
[1] = tested on: OVCAR-5 human ovarian cancer cells; assay: OVCAR-5 cell growth (Cell Titer-Glo) with chemotherapy agents with or without dexamethasone and relacorilant; assay type: cell-based; conditions: for IC50 (decrease in IC50 of the agent from dexamethasone-alone to relacorilant + dexamethasone) / Max effect (increase in maximal cell toxicity of the agent from dexamethasone-alone to relacorilant + dexamethasone): OVCAR-5, 100 nM dexamethasone, 300 nM relacorilant; for Max effect (increase in maximal cell toxicity of the agent from dexamethasone-alone to relacorilant + dexamethasone): high doses of chemotherapeutic
Experimental: The initial cell density was chosen to be low enough to allow for several population doublings (typically 3 to 5) during the indicated incubation period. […] After 48 hours of incubation, serially diluted test agents in growth medium were added to each well. After 72 hours of culture, the plated cells and Cell Titer-Glo® (Promega G7571) reagents were brought to room temperature to equilibrate for 30 minutes. 200 μL of Cell Titer-Glo® reagent was then added to each well, the plate was shaken for two minutes, and then left to equilibrate for ten minutes. The Cell Titer-Glo® cell viability assay uses ATP levels to determine cell numbers. After this equilibration, luminescence was read on the Biotech Synergy II microplate reader. The percent control (% C) of cell growth for each test concentration was calculated relative to untreated wells. All tests were performed in quadruplicate. Individual assay plates were evaluated for appropriate signal and well-to-well variance in the control wells for quality control.

[2] = tested on: whole blood gene expression; assay: Whole blood gene expression after 28 days of enzalutamide in cancer patients; assay type: in vivo; conditions: human cancer patients, all p-values greater than 0.5
Source text: Enzalutamide is an androgen receptor antagonist used in the treatment of hormone-sensitive cancers such as prostate cancer. […] The small circular markers indicate the change in gene expression for individual genes. None of the gene expression levels changes following enzalutamide (as compared to baseline levels) reach significance (all p-values are greater than 0.5).

MIA PaCa-2 xenograft = MIA PaCa-2 xenograft tumor growth in immunodeficient mice; assay type: in vivo; conditions: single agent
Source text: The present example, Example 3, provides results of administration of the glucocorticoid receptor modulator relacorilant to cancerous cells. […] The MIA PaCa-2 xenograft model uses MIA PaCa-2 cell-line cells (pancreatic tumor cells derived from a pancreatic adenocarcinoma from a patient) engrafted into immunodeficient mice. The ovarian OVCAR-5 cell line is derived from a human epithelial carcinoma of the ovary, and was established from ascitic fluid obtained (prior to cytotoxic treatment) from a patient with progressive ovarian adenocarcinoma.
FIG. 10A. Relacorilant sensitizes the MIA PaCa-2 xenograft to paclitaxel. Tumor volume of PaCa-2 xenograft tumors implanted in immunodeficient mice is shown as a function of time (days) after implantation in the presence of vehicle (filled circles), paclitaxel (7.5 mg/kg; filled squares), relacorilant alone (upwardly pointing triangles), and relacorilant+7.5 mg/kg paclitaxel (downwardly pointing triangles). 7.5 mg/kg paclitaxel was administered three times (at the days indicated by the dashed vertical lines, indicating days 8, 12, and 16 following tumor implantation into the mice).
FIG. 10B. Relacorilant with Paclitaxel Reduces MIA PaCa-2 xenograft Tumor Volume. Initial tumor volume of PaCa-2 xenograft tumors implanted in immunodeficient mice was less than 400 cubic millimeters (mm^3). […] Tumor size progression is thus indicated by lines descending from the top (100%) value. The tumor-bearing mice were treated with vehicle, relacorilant (30 mg/kg every day), paclitaxel (three doses of 7.5 mg/kg paclitaxel, one dose administered on each of the days indicated in FIG. 10A), and the combination relacorilant (30 mg/kg every day) with paclitaxel (7.5 mg/kg doses of paclitaxel each administered on days 8, 12, and 16 post implantation). […] Xenograft tumor growth was slowed by combined relacorilant+paclitaxel as compared to either paclitaxel alone or relacorilant alone. Relacorilant thus enhanced sensitivity to paclitaxel in the pancreatic MIA PaCa-2 xenograft model.

Compound | IC50 (decrease in IC50 of the agent from dexamethasone-alone to relacorilant + dexamethasone) [1] | Max effect (increase in maximal cell toxicity of the agent from dexamethasone-alone to relacorilant + dexamethasone) [1] | further results
C=C1C[C@@H]2CC[C@@]34C[C@H]5O[C@H]6[C@@H](O3)[C@H]3O[C@H](CC[C@@H]3O[C@H]6[C@H]5O4)CC(=O)C[C@@H]3[C@@H](OC)[C@@H](C[C@H](O)CN)O[C@H]3C[C@H]3O[C@@H](CC[C@@H]1O2)C[C@@H](C)C3=C [Eribulin] | ++ (>60% decrease in IC50 from the dexamethasone-alone to the relacorilant + dexamethasone treatments) |  | 
CNC(=O)c1ccc(N2C(=S)N(c3ccc(C#N)c(C(F)(F)F)c3)C(=O)C2(C)C)cc1F [enzalutamide] |  |  | changes in gene expression levels compared to baseline [2]: did not result in any significant changes
O=C(O)c1ccc(-c2c[nH]c3ncc(-c4ccccc4)cc23)cc1C1CCCC1 [GSK650394] | − | − | 
N.N.O=C([O-])C1(C(=O)[O-])CCC1.[Pt+2] [carboplatin] |  |  | cell viability ([1]; OVCAR-5 with 100 nM dexamethasone, 1 nM to 2187 nM carboplatin): dose dependent
CCc1c2c(nc3ccc(OC(=O)N4CCC(N5CCCCC5)CC4)cc13)-c1cc3c(c(=O)n1C2)COC(=O)[C@]3(O)CC [Irinotecan] | + (~10-59% decrease in IC50 from the dexamethasone-alone to the relacorilant + dexamethasone treatments) | − | 
C#Cc1cccc(Nc2ncnc3cc(OCCOC)c(OCCOC)cc23)c1 [Erlotinib] | − |  | 
O=c1[nH]cc(F)c(=O)[nH]1 [5-FU] | + (~10-59% decrease in IC50 from the dexamethasone-alone to the relacorilant + dexamethasone treatments) | − | 
Nc1nc2[nH]cc(CCc3ccc(C(=O)N[C@@H](CCC(=O)O)C(=O)O)cc3)c2c(=O)[nH]1 [Pemetrexed] | ++ (>60% decrease in IC50 from the dexamethasone-alone to the relacorilant + dexamethasone treatments) |  | 
CCC1=C[C@@H]2CN(C1)Cc1c([nH]c3ccccc13)[C@@](C(=O)OC)(c1cc3c(cc1OC)N(C)[C@H]1[C@@](O)(C(=O)OC)[C@H](OC(C)=O)[C@]4(CC)C=CCN5CC[C@]31[C@@H]54)C2 [Vinorelbine] | + (~10-59% decrease in IC50 from the dexamethasone-alone to the relacorilant + dexamethasone treatments) |  | 
COc1cccc2c1C(=O)c1c(O)c3c(c(O)c1C2=O)C[C@@](O)(C(=O)CO)C[C@@H]3O[C@H]1C[C@H](N)[C@H](O)[C@H](C)O1 [Doxorubicin] | + (~10-59% decrease in IC50 from the dexamethasone-alone to the relacorilant + dexamethasone treatments) |  | 
CS(=O)(=O)CCNCc1ccc(-c2ccc3ncnc(Nc4ccc(OCc5cccc(F)c5)c(Cl)c4)c3c2)o1 [Lapatinib] | + (~10-59% decrease in IC50 from the dexamethasone-alone to the relacorilant + dexamethasone treatments) | − | 
CC(=O)O[C@H]1C(=O)[C@@]2(C)[C@H]([C@H](OC(=O)c3ccccc3)[C@]3(O)C[C@H](OC(=O)[C@H](O)[C@@H](NC(=O)c4ccccc4)c4ccccc4)C(C)=C1C3(C)C)[C@]1(OC(C)=O)CO[C@@H]1C[C@@H]2O [paclitaxel] |  |  | tumor growth (tumor volume over time) (MIA PaCa-2 xenograft; paclitaxel 7.5 mg/kg on days 8, 12 and 16): ineffective in delaying tumor growth; time to progression (fraction of tumors whose volume remained below 400 mm^3) (MIA PaCa-2 xenograft; relacorilant 30 mg/kg every day or paclitaxel 7.5 mg/kg on days 8, 12, 16): ineffective alone in delaying tumor growth
CC(=O)Nc1cccc(-n2c(=O)n(C3CC3)c(=O)c3c(Nc4ccc(I)cc4F)n(C)c(=O)c(C)c32)c1 [Trametinib] | − | − | 
CC1(C)CCC(CN2CCN(c3ccc(C(=O)NS(=O)(=O)c4ccc(NCC5CCOCC5)c([N+](=O)[O-])c4)c(Oc4cnc5[nH]ccc5c4)c3)CC2)=C(c2ccc(Cl)cc2)C1 [Venetoclax] | + (~10-59% decrease in IC50 from the dexamethasone-alone to the relacorilant + dexamethasone treatments) | − | 
O=C(c1cc(Cc2n[nH]c(=O)c3ccccc23)ccc1F)N1CCN(C(=O)C2CC2)CC1 [Olaparib] | − | − | 
N.N.[Cl][Pt][Cl] [cisplatin] | + (~10-59% decrease in IC50 from the dexamethasone-alone to the relacorilant + dexamethasone treatments) | + (consistent ~0-40% increase in toxicity at high doses of chemotherapeutic from the dexamethasone-alone to the relacorilant + dexamethasone treatments) | 
Cc1c[nH]c(-c2cnc(NCCNc3ccc(C#N)cn3)nc2-c2ccc(Cl)cc2Cl)n1 [CHIR-99021] | − | − | 
CC(C)(C)c1[nH]cnc1/C=c1\[nH]c(=O)/c(=C/c2ccccc2)[nH]c1=O [Plinabulin] | − |  | 
COc1cc([C@@H]2c3cc4c(cc3[C@@H](O[C@@H]3O[C@@H]5CO[C@@H](C)O[C@H]5[C@H](O)[C@H]3O)[C@H]3COC(=O)[C@H]23)OCO4)cc(OC)c1O [Etoposide] | + (~10-59% decrease in IC50 from the dexamethasone-alone to the relacorilant + dexamethasone treatments) | − | 
CCN(CC)CCCC(C)Nc1ccnc2cc(Cl)ccc12 (stereo not shown) [Chloroquine] | − |  | 
